{"source": "patent US20240310364A1", "about": "“TUNABLE DYNAMIC AND NON-DYNAMIC HYDROGEL SYSTEMS” (The Johns Hopkins University, priority 2021, published 2024)", "key": {"ECFCs [1]": {"system": "ECFCs", "test": "Inhibition studies (FI 14, GM6001, blebbistatin) in ECFC-loaded D-hydrogels", "assay_type": "cell-based, human", "design": "ECFC aspect ratio (cell spreading) / integrin cluster size and area covered / integrin intensity and number / cellular protrusions and filopodia / sprouting: unit of the concentration uncertain", "details": "for vascular bed formation (tube length and volume): 3 days, blebbistatin 60 mM, FI 14 10 mM", "method": "For 2D screening of the FI 14 (FI-14, R 95.0%; Sigma-Aldrich), the ECFCs were seeded into a 96-well plate at a cell density of 10000 cells/well in EGM-2 media (Lonza) with 10% FBS (Hyclone). After 1 day of culture, 100 μL of EGM-2 media containing increased concentrations of FI 14 ranging from 0 to 10 μM were added per well and culture for additional 24 hr following by staining for phospho-FAK (Tyr397;ThermoFisher Scientific) as described below. Biological triplicates were tested for each FI 14 concentrations. For inhibition studies, ECFCs were suspended in the hydrogel precursor as above with the addition of 10 mM of FI-14 (Sigma-Aldrich) or GM6001 (1 mg mL^−1; Sigma-Aldrich), 60 mM Blebbistain (Sigma-Aldrich) or vehicle control (DMSO; Sigma-Aldrich). The corresponding culture media also supplied with the corresponding inhibitor/vehicle control at the same concentration. Media was replenish every 24 h till analysis."}, "ECFCs [2]": {"system": "ECFCs", "test": "Inhibition studies (FI 14, GM6001, blebbistatin) in ECFC-loaded D-hydrogels", "assay_type": "cell-based, human", "design": "unit of the concentration uncertain", "details": "0.1 (unit uncertain), versus controls"}, "mUPS spheroids": {"system": "mUPS spheroids", "test": "Sarcoma spheroid encapsulation in hydrogels", "assay_type": "cell-based, murine", "details": "co-encapsulated in quick-relaxing hydrogels", "method": "Spheroids were formed using hanging droplet culture. Briefly, cell monolayers were grown until ˜75% confluent, rinsed with PBS, and passaged with 0.25% Trypsin-EDTA. Hanging droplets of 10,000 cells/20 μL droplet were formed on the inside of the cover of a 60 mm […]. 10 mL of PBS were placed in the bottom of the dish to act as a hydration chamber. Spheroids were cultured as hanging droplets for three days prior to encapsulation in hydrogels. 10 μl of media was added to each droplet on the second day of droplet culture.\nFor spheroid encapsulation, a similar protocol was followed with the adjustments for spheroids. We first collected 12 spheroids in a 1.5 mL Eppendorf tube, centrifuged for 3 minutes, and then pipetted off the media. All subsequent steps were identical to single-cell encapsulation. Cells in hydrogels were cultured under standard conditions and daily media changes of 200 μL.\nLight microscopy images of encapsulated cells were recorded daily at 4×, 10×, and 20× magnifications starting at post-encapsulation (PE) Day 0. For spheroid area quantification, 10× images were grouped by individual spheroid and the area of the spheroid was manually traced in FIJI (NIH) for each day. Days 1-3 were normalized to the size of the spheroid on Day 0. […]"}, "[3]": {"details": "60 (unit uncertain), 24 h, ECFCs in D-hydrogels"}}, "data": [{"smiles": "CNC(=O)[C@H](Cc1c[nH]c2ccccc12)NC(=O)[C@@H](CC(=O)NO)CC(C)C", "note": "[GM6001]", "values": [{"measurement": "stiffness of ECFC-loaded D-hydrogels", "setting": "ECFCs [1]; day 3, versus without MMP inhibitor", "value": "significantly stiffer"}, {"measurement": "tubulogenesis of ECFCs", "setting": "ECFCs [2]", "value": "inhibited"}]}, {"smiles": "Cc1ccc2c(c1)C(=O)C1(O)CCN(c3ccccc3)C1=N2", "note": "(centres unmarked) [blebbistatin]", "values": [{"measurement": "cellular protrusions and filopodia", "setting": "ECFCs [1]; [3]", "value": "decrease"}, {"measurement": "integrin cluster size and area covered", "setting": "ECFCs [1]; [3]", "value": "significant decrease"}, {"measurement": "integrin intensity and number", "setting": "ECFCs [1]; [3]", "value": "did not affect"}, {"measurement": "vascular bed formation (tube length and volume)", "setting": "ECFCs [1]; ECFCs in D-hydrogels", "value": "shorter tube length and reduced vessel volume"}, {"measurement": "spheroid size under contractility inhibition", "setting": "mUPS spheroids", "value": "not sufficient to fully mirror spheroid shrinkage"}]}, {"smiles": "Nc1cc(N)c(N)cc1N", "note": "[FI 14]", "values": [{"measurement": "ECFC aspect ratio (cell spreading)", "setting": "ECFCs [1]; 10 (unit uncertain), 24 h, versus control D-hydrogels", "value": "cell spreading is reduced"}, {"measurement": "sprouting", "setting": "ECFCs [1]; 10 (unit uncertain), ECFCs in D-hydrogels", "value": "significant reduction"}, {"measurement": "phosphorylation of MLC", "setting": "ECFCs [1]; 24 h, ECFCs in D-hydrogels", "value": "reduces the phosphorylation of MLC"}, {"measurement": "integrin β1 and integrin aV mRNA expression", "setting": "ECFCs [1]; 24 h, versus D-hydrogel controls", "value": "downregulation"}, {"measurement": "MMP1 and MMP9 mRNA levels", "setting": "ECFCs [1]; 24 h, versus untreated controls", "value": "significant reduction"}, {"measurement": "MT1-MMP expression at protein and mRNA levels", "setting": "ECFCs [1]; 24 h in culture", "value": "significantly lower expression"}, {"measurement": "vascular bed formation (tube length and volume)", "setting": "ECFCs [1]; ECFCs in D-hydrogels", "value": "decrease in tube length and volume"}]}]}
